Here are results for six molecules from ChEMBL document CHEMBL2321812 (J Med Chem, 2013).

The data set can be described thus: Half life in human liver microsomes. The class given is ADME, Microsome. (In general: Liver microsomes are vesicles of endoplasmic reticulum, rich in cytochrome P450 enzymes.)

For `Oc1cc(-c2nnc(/C=C/c3nnc(-c4ccc(F)cc4)n3-c3ccccc3Cl)o2)ccn1`, the half-life (as a rule, the time needed for the level to fall by half in the phase considered) came to 128 min.
`Cc1cc2nc(CSc3nnc(-c4ccncc4)n3-c3ccccc3Cl)cc(=O)n2cc1C` displayed a half-life of 7 min.
Under `COc1cc(-c2nnc(/C=C/c3nnc(-c4ccc(S(C)(=O)=O)cn4)n3-c3ccccc3Cl)o2)ccn1` stands 37 min; under `N#Cc1ccc(-c2nnc(CSc3nnc(-c4ccncc4)n3-c3ccccc3Cl)o2)cc1`, 2.4 min; under `Cc1ccc(-c2nnc(CCc3nnc(-c4ccncc4)n3-c3ccccc3Cl)o2)cc1`, 7 min.
Molecule `CS(=O)(=O)c1ccc(-c2nnc(SCc3nnc(-c4ccc(Cl)cc4)o3)n2-c2ccccc2Cl)nc1` showed a half-life of 4 min.
